Reference: patent US5132409A, “Macrocyclic chelating agents and chelates thereof” (Bracco Industria Chimica S.p.A., priority 1987, dated 1992)

Legend:
[1] = background statement in words; cited from earlier work
[2] = Determination of relaxivity (MINISPEC PC 120 BRUKER, 20 MHz proton, 39° C.); assay type: physicochemical; details: pH 7.3, aqueous solvent, 0-5 mM; for Transverse relaxivity (R2): Carr, Purcell, Meiboom and Gill sequence; for Longitudinal relaxivity (R1): Inversion Recovery
Procedure: Determination of the Relaxivity of the Compounds of the Present Invention
A) Apparatus: […] PC 120 (BRUKER)
B) Observation frequency:
39° C., with pre-thermostatization
of the NMR test tube for 10 min
at the operative temperature
in the range from 0 to 5 mM with the
following specific measuring points:
F) pH: 7.3, to be checked again
potentiometrically before the
relaxation measurement.
Longitudinal relaxivity (R1) measurements were calculated using the "Inversion Recovery" sequence with an 8 point minimum and a 3 parameter fit, according to the program provided for the […] 120 BRUKER instrument, by which measurements were taken.
Transverse relaxivity (R2) measurements were calculated using the sequence of Carr, Purcell, Meiboom and Gill, according to the program provided for the […] 120 BRUKER instrument, by means of which measurements were taken, adjusting the apparatus in such a way as to observe the decay of the signal to about 1/3 of the starting value, with a score number higher or equal to 10 and a 2 parameter fit.

mouse = assay: Determination of LD50 in the mouse by intravenous administration; assay type: in vivo; details: male and female mice, strain Crl:CD1(ICR)BR
From the text: Determination of LD50 in the Mouse by Intravenous Administration of the Compounds of the Present Invention
In table II are reported, as non-limiting examples, the LD50 values for compounds A and B of the present invention, in comparison with GdCl3 and with Gd/DTPA neutralized with N-methylglucamine.
*male and female mice were used, Strain: Crl:CD1(ICR)BR

| Molecule | removal from the blood stream and from the lesions of the tissues under examination [1] | Transverse relaxivity (R2) [2] | Longitudinal relaxivity (R1) [2] | LD50 in the mouse (mouse) |
| --- | --- | --- | --- | --- |
| CNC[C@H](O)[C@@H](O)[C@H](O)[C@H](O)CO.CNC[C@H](O)[C@@H](O)[C@H](O)[C@H](O)CO.O=C([O-])CN(CCN(CC(=O)[O-])CC(=O)O)CCN(CC(=O)[O-])CC(=O)O.[Gd+3] [Gd/DTPA, reference compound] | too quickly removed from the blood stream and from the lesions of the tissues under examination | 5.15 ± 0.02 mM/s | 4.08 ± 0.01 mM/s | 4.8 (4.47-5.16) mmol/kg |
| D(-)-N-methylglucamine salt of Gd^(3+) /2-[1,4,7,10-tetraaza-4,7,10-tri(carboxymethyl)-cyclododecane-1-yl]-3-hydroxypropionic acid complex | – | 5.06 ± 0.01 mM/s | 3.72 ± 0.01 mM/s | 13.1 (12.2-14.1) mmol/kg |
| [Cl][Gd]([Cl])[Cl] [GdCl3, reference compound] | – | – | – | 0.28 (0.24-0.32) mmol/kg |
| D(-)-N-methylglucamine salt of the Gd^(3+) /2-[1,4,7,10-tetraaza-4,7,10-tri(carboxymethyl)-cyclododecane-1-yl]-3-benzyloxypropionic acid complex | – | 5.67 ± 0.02 mM/s | 4.15 ± 0.01 mM/s | 8.8 (7.79-9.94) mmol/kg |
